# Reference: US10111847B2, “Compounds and methods for modulating vascular injury” (The Regents of the University of California, priority 2012, dated 2018)
# Columns and labels:
# [1] = test system: human saphenous vein endothelial (EC) cells; experiment: TNFα induced cellular ROS production (CellRox) in EC (Maresin-1); type: cell-based; details: TNFα 1 ng/ml
# Description: Mar-1. Cells were grown in 8-well chamber slides at a density of 15000 cells/well for 2 days for VSMCs and 50000 cells/well for 2 days for ECs in a 96 well plate. After treatments, cells were incubated with dihydroethidium (DHE, 3 μM, Invitrogen) or CellRox (Invitrogen Inc, 5 μM for ECs) in media for 30 minutes at 37° C. in a humidified chamber with 5% CO2 protected from light. DAPI nuclear counter staining was utilized for DHE staining. For DHE, fluorescence was detected with TRITC filter allowing the detection of the DHE emission wavelength of 590-620 nm. Fluorescence quantitation was performed using ImageJ analysis software. For ECs, fluorescence measurements were taken using a Spectramax M2e plate reader.
# FIGS. 13A-13D. Representative merged images of DHE staining, counterstained with DAPI. (A), Negative control. (B), TNFα at 10 ng/ml for 4 hr. […] (E) Quantitative comparison of DHE staining intensity in the nucleus of human saphenous vein vascular smooth muscle (sv-VSMC) cells, treated with TNFα and 7S and 7R-Maresin-1 with and without pertussis toxin. (F) Quantitative comparison of cellular ROS production by CellRox (Life technologies, Carlsbad, Calif.) in human saphenous vein endothelial (EC) cells treated with TNFα (1 ng/nil) and 7S-Maresin-1 (N>=3). […]
# TNF-α-stimulated VSMC = experiment: U937 monocyte adhesion to TNF-α-stimulated VSMC (Maresin-1); type: cell-based, human; details: 1-100 nM, 30 min pretreatment; TNFα 10 ng/ml 4 hr
# Description: MaR-1. VSMCs and ECs were seeded on a 96 well plate (20000 cells/well for VSMCs and 50000 cells/well for ECs) and after 2 days, were treated with Maresin-1 (1-100 nM) for 30 min followed by TNF-α for 4 hr and then calcein AM-labeled U937 cells were added on top of the VSMCs. After 15-minute incubation at 37 C, unbound cells were washed off with cold PBS. Fluorescence measurements (ex 494 nm, em 517 nm) of bound monocytes were taken with a plate reader. For capturing images, the assay was performed in 8-well chamber slides (Nunc Labtek) and images were taken after cold PBS wash (three times) following U937 incubation.
# (§1) FIGS. 15A-15D. Representative images of Calcein-AM labeled U937 monocytes adhered to human sv-VSMCs pretreated with vehicle (A, B) or 7S-Maresin-1 (C) or 7S-Maresin-1 and pertussis toxin (D) for 30 min, followed by TNFα at 10 ng/ml for 4 hr (B, C, D). (E) Quantitative analysis of U937 adhesion assay in human sv-VSMCs and (F) human sv-ECs (1 ng/ml TNFα used for EC cells). […] Bar graph represents net quantitative densitometry analysis. […] Expression of MCP-1 was measured by qRT-PCR, and normalized to unstimulated cells (n=3, results are mean±SEM, P<0.05 for Mar-1 (10 and 100 nM) vs TNF alone, unpaired t-test).
# VCAM-1 = VCAM-1 expression in TNFα treated VSMC, western blot; type: cell-based, human; details: 10 and 100 nM; TNFα 10 ng/ml 4 hr; P=0.20 compared to TNFα
# Description: Mar-1. VSMCs and ECs were lysed in buffer (20 mM Tris-Hcl, 137 mM NaCl, 10% Glycerol, 1% NP-40) with protease and phosphatase inhibitors (Halt inhibitor capsules, Pierce, Inc) by sonication on ice. The lysates were instantly snap frozen in liquid nitrogen and thawed back later for western blotting. After centrifugation (15,000 g for 20 minutes), the whole cell extract (supernatant) was collected and was heated at 100° C. in Laemlli buffer for 6 minutes. Lysates were run on Mini-Protean TGX gels
# (Biorad) and transferred on PVDF membranes which were probed with appropriate primary and secondary antibodies and visualized for quantitation using q-dot nanocrystals (Life Technologies, Inc).
# as §1
# p65 subunit = experiment: Nuclear translocation of p65 subunit in sv-VSMCs (immunofluorescence); type: cell-based, human; details: 100 nm, 30 min; TNFα 10 ng/ml 2 hrs
# Description: Immunofluorescence for p65 (RelA): 15000 VSMCs or 30000 ECs were seeded on a 8-well chamber slide. Cells received 30 min of Maresin-1 pretreatment, followed by TNF-α for 2 hr. Cells were fixed in 2% paraformaldehyde, followed by permeabilization with ice-cold acetone (10 min) and 1% Triton X-100 (20 min). Cells were incubated overnight in a humidified chamber with anti-p65 antibody (Santa Cruz Biotechnology Inc.) followed by Alexa-fluor 488 tagged secondary antibody (Life Technologies) and were visualized under a fluorescent microscope.
# FIGS. 16A-16D. VSMCs were grown in chamber slides and treated with vehicle or 100 nm of 7S or 7R-Maresin-1 with/without 10 ng/ml pertussis toxin for 30 min, followed by TNFα (10 ng/ml) for 2 hrs. Cells were fixed and subsequently stained with anti-p65 (Santa Cruz Biotechnology) and secondary antibodies (Alexa-488). (A-D) Representative images of Ctrl (A), TNFα (B), 7R-Maresin-1+TNFα (C) and 7R-Maresin-1+pertussis toxin (10 ng/ml)+TNFα. (E) Mean fluorescence of nucleus and cytoplasm were quantified from all groups and the net result of the ratio of nucleus over cytoplasmic mean fluorescence is depicted in the bar graph, as a measure of relative p65 nuclear translocation. (N>=3). […]
structure (smiles),measurement,setting,value
"CC/C=C\C/C=C\C[C@H](O)\C=C/C=C/C=C/[C@@H](O)C/C=C\CCC(=O)O [7S-Maresin-1, 7S,14R-dihydroxydocosa-4Z,8E,10Z,12Z,16Z,19Z-hexaenoic acid]",TNF-α-induced superoxide production in EC,[1],significantly reduced
same,monocyte adhesion (U937) to TNF-α-stimulated VSMC,TNF-α-stimulated VSMC,dose-dependent inhibition
same,VCAM-1 expression by Western blot,VCAM-1,inhibition of VCAM-1 expression
same,nuclear translocation of p65 subunit in human sv-VSMCs,p65 subunit,Inhibit
